Results reported in patent US6489331B1, “Remedies for diabetes” (Kyowa Hakko Kogyo Co., Ltd., priority 1998, dated 2002).
Where a name gives a salt, the structure may show the parent alone. Read-outs that look alike come from different tables or passages of the source.

What was measured:
[1] = system: dd male mice; assay: Acute toxicity test (minimum lethal dose); type: in vivo; conditions: po, mortality after seven days
Method: A test compound was orally administered to dd male mice (body weight: 20±1 g, n=3). Mortality rate after seven days was measured to determine minimum lethal dose (MLD).

[2] = system: MIN6 cell; assay: Insulin secretion enhancing action in cultured β-cell (MIN6); type: cell-based; conditions: in the presence of 14.5 mM glucose; drug concentration 1.0 μM
Method: Culture of the MIN6 cells and insulin secretion test utilizing the MIN6 cells were performed basically according to the methods described in literature (Ishihara et al., Diabetologia, vol. 36, pp.1139-1145, 1993). The effect of a compound on the insulin secretion in the presence of 14.5 mM glucose was determined by measuring insulin amounts in cell culture supernatants collected as follows. MIN6 cells cultured on a 24-well plate were washed twice by using 1 ml of Buffer A (119 mM sodium chloride, 4.74 mM potassium chloride, 2.54 mM calcium chloride, 1.19 mM magnesium sulfate, 1.19 mM potassium dihydrogenphosphate, 10 mM 2-[4-(2-hydroxyethyl)-1-piperazinyl]ethanesulfonic acid, 0.1% bovine serum albumin, pH 7.3) containing 2 mM glucose, and then were incubated in 1 ml of Buffer A containing 2 mM glucose at 37° C. for 45 minutes. After the incubation, the culture supernatant was changed to Buffer A (0.9 ml) containing a test compound at various concentrations and 2 mM glucose, and the cells were further incubated at 37° C. for 15 minutes. The MIN6 cells were stimulated with glucose by the addition of Buffer A (0.1 ml) containing 127 mM glucose to the culture (final glucose concentration: 14.5 mM). After the stimulation, the cells were further incubated at 37° C. for 45 minutes, and then the culture supernatant was collected.
Separately, the effect of a compound on the insulin secretion in the presence of 5 mM glucose was determined by measuring insulin amounts in cell culture supernatants collected as follows. MIN6 cells cultured on a 24-well plate were washed twice by using 1 ml of Buffer A containing 5 mM glucose, and then the culture supernatant was changed to Buffer A (0.9 ml) containing a test compound at various concentrations and 5 mM glucose. Then, the cells were incubated at 37° C. for 45 minutes (final glucose concentration: 5 mM), and the culture supernatant was collected.
After the culture supernatant was diluted with a phosphate buffer containing 1% bovine serum albumin, 0.1% Tween 20, 0.12% disodium ethylenediaminetetraacetate and 0.1% sodium azide, antibody-reactive insulin secreted in the culture supernatant was quantified by enzyme immunoassay or radio immunoassay. […] The results are indicated as averages (avg) for 3 to 4 samples with standard error values (se).

[3] = system: Wistar male rats; assay: Hyperglycemia suppression action after glucose-loading; type: in vivo; conditions: 30 mg/kg, po
Method: These rats were used for the experiment after starvation for 18 hours. A test compound was orally administered 1 hour before oral administration of glucose (2 g/kg). Jugular venous blood was collected before the administration of test compound, before the glucose-loading, 5, 10, 15, 30, 45 and 60 minutes after the glucose-loading, and plasma glucose concentration was measured (enzymatic method). The insulin level was indicated as amount of rat insulin (ng/mL).

[4] = system: Wistar male rats; conditions: iv; for Area of plasma insulin, test compound-administered group: after glucose-loading (10 mg/kg iv)
Method: Wistar male rats (body weight: about 250 g) starved for 18 hours were anesthetized by intraperitoneal administration of sodium pentobarbital (50 mg/kg), and fixed at the dorsal position. Cannulas were inserted into the right common carotid artery for blood collection and the left femoral vein for administration of drug and glucose, respectively. To these rats were intravenously administered 500 U/kg of heparin to prevent blood coagulation. After about 0.2 ml of blood was collected, a drug was intravenously administered. Two minutes after the administration of the drug, blood was collected, and then glucose (10 mg/kg) was immediately administered intravenously. Then, blood was collected every 20 seconds for 2 minutes. Insulin concentration in plasma obtained by centrifugation was measured by radioimmunoassay. From an insulin concentration which increased after the glucose-loading, its area was calculated and considered the amount of secreted insulin. The insulin level was indicated as the amount of rat insulin (ng/mL).

Question: Which results are given for `CCCN1C(=O)N2C[C@@H](Cc3ccccc3)N=C2c2[nH]c(C3CCCC3)nc21` [Compound 16, (R)-8-benzyl-2-cyclopentyl-7,8-dihydro-4-propyl-1H-imidazo[2,1-i]purin-5(4H)-one hydrochloride]?
Answer: minimum lethal dose (MLD) [1]: not less than 300 mg/kg; Amount of secreted insulin (ng/ml) avg [2]: 229.5 ng/mL; Plasma glucose concentration ([3]; 0 minute (before glucose-loading)): 102 ± 4.6 mg/dL; Plasma glucose concentration ([3]; 5 minutes after glucose-loading): 147 ± 5.7 mg/dL; Plasma glucose concentration ([3]; 10 minutes after glucose-loading): 183 ± 9.1 mg/dL; Plasma glucose concentration ([3]; 15 minutes after glucose-loading): 186 ± 8.7 mg/dL; Plasma glucose concentration ([3]; 30 minutes after glucose-loading): 167 ± 3.3 mg/dL; Plasma glucose concentration ([3]; 45 minutes after glucose-loading): 165 ± 4.8 mg/dL; Plasma glucose concentration ([3]; 60 minutes after glucose-loading): 178 ± 4.7 mg/dL; Plasma glucose concentration ([3]; −1 minute): 114 ± 4.5 mg/dL; % Ratio based on control (area of plasma insulin) ([4]; 3 mg/kg): 246 ± 19%; Area of plasma insulin, test compound-administered group ([4]; 3 mg/kg): 17.28 ± 1.35 ng·s/mL

Question: Which results are given for `CCCN1C(=O)N2CC(CCc3ccccc3)N=C2c2[nH]c(C3CCCC3)nc21` (stereo not drawn) [Compound 31, 2-cyclopentyl-7,8-dihydro-8-phenethyl-4-propyl-1H-imidazo[2,1-i]purin-5(4H)-one hydrochloride]?
Answer: Amount of secreted insulin (ng/ml) avg [2]: 220.5 ng/mL; % Ratio based on control (area of plasma insulin) ([4]; 1 mg/kg): 173 ± 16%; Area of plasma insulin, test compound-administered group ([4]; 1 mg/kg): 9.00 ± 0.84 ng·s/mL

Question: Which “Amount of secreted insulin (ng/ml) avg” value [2] does the source give for `CCCN1C(=O)N2CC(Cc3cccc(F)c3)N=C2c2[nH]c(C3CCCC3)nc21` (stereo not drawn) [Compound 19, 2-cyclopentyl-8-(3-fluorobenzyl)-7,8-dihydro-4-propyl-1H-imidazo[2,1-i]purin-5(4H)-one hydrochloride] here?
Answer: 223.8 ng/mL

Question: What about the “% Ratio based on control (area of plasma insulin)” value ([4]; 1 mg/kg) of the same molecule?
Answer: 291 ± 42%

Question: And the “Area of plasma insulin, test compound-administered group” value ([4]; 1 mg/kg)?
Answer: 13.41 ± 1.95 ng·s/mL

Question: Which results are given for `CCCN1C(=O)N2CC(Cc3ccc(Br)cc3)N=C2c2[nH]c(C3CCCC3)nc21` (stereo not drawn) [Compound 23, 8-(4-bromobenzyl)-2-cyclopentyl-7,8-dihydro-4-propyl-1H-imidazo[2,1-i]purin-5(4H)-one hydrochloride]?
Answer: Amount of secreted insulin (ng/ml) avg [2]: 249.9 ng/mL; % Ratio based on control (area of plasma insulin) ([4]; 1 mg/kg): 228 ± 50%; Area of plasma insulin, test compound-administered group ([4]; 1 mg/kg): 11.85 ± 2.58 ng·s/mL
